# Reference: ChEMBL document CHEMBL1201862, “PubChem BioAssay data set” (2004)
#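 The compound was tested at five concentrations on cells cultured in 96-well plates, with a 48-hour exposure period. GI50 = concentration required for 50% inhibition of growth.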 Calls of active or inactive are those of the source. Cut-off read from the data, not from the text of the source: active = GI50 up to about 1.1 µM and inactive = higher.
# How the values were obtained:
# Assay in all cases: NCI-60 cell line screen, 48 h
# SW-620 = test system: SW-620
# SK-OV-3 = test system: SK-OV-3
# Malme-3M = test system: Malme-3M
# NCI-H23 = test system: NCI-H23
# SNB-75 = test system: SNB-75
# NCI/ADR-RES = test system: NCI/ADR-RES
# LOX IMVI = test system: LOX IMVI
# SR = test system: SR
# SF-295 = test system: SF-295
# NCI-H522 = test system: NCI-H522
# CCRF-CEM = test system: CCRF-CEM
# SK-MEL-2 = test system: SK-MEL-2
# HCT-15 = test system: HCT-15
# MDA-MB-231 = test system: MDA-MB-231
# CAKI-1 = test system: CAKI-1
# HT-29 = test system: HT-29
# NCI-H226 = test system: NCI-H226
# M14 = test system: M14
# OVCAR-5 = test system: OVCAR-5
# RPMI-8226 = test system: RPMI-8226
# UACC-257 = test system: UACC-257
# EKVX = test system: EKVX
# 786-0 = test system: 786-0
# TK-10 = test system: TK-10
# SF-539 = test system: SF-539
# SNB-19 = test system: SNB-19
# A498 = test system: A498
# IGROV-1 = test system: IGROV-1
# ACHN = test system: ACHN
# MDA-N = test system: MDA-N
# SN12C = test system: SN12C
# BT-549 = test system: BT-549
# Hs-578T = test system: Hs-578T
# HCT-116 = test system: HCT-116
# OVCAR-4 = test system: OVCAR-4
# NCI-H460 = test system: NCI-H460
# HOP-92 = test system: HOP-92
# A549 = test system: A549
# MCF7 = test system: MCF7
# T47D = test system: T47D
# DU-145 = test system: DU-145
# OVCAR-3 = test system: OVCAR-3
# KM12 = test system: KM12
# U-251 = test system: U-251
# OVCAR-8 = test system: OVCAR-8
# SK-MEL-5 = test system: SK-MEL-5
# UACC-62 = test system: UACC-62
# SF-268 = test system: SF-268
# COLO 205 = test system: COLO 205
# PC-3 = test system: PC-3
# MDA-MB-435 = test system: MDA-MB-435
# MOLT-4 = test system: MOLT-4
# SK-MEL-28 = test system: SK-MEL-28
# HCC 2998 = test system: HCC 2998
# HOP-62 = test system: HOP-62
# RXF 393 = test system: RXF 393
# K562 = test system: K562
compound,measurement,setting,value
O=C(O)Cn1cnc2c(O)nc(Nc3ccccc3)nc21,GI50,SW-620,> 100 µM (inactive)
same,GI50,SK-OV-3,> 100 µM (inactive)
same,GI50,Malme-3M,> 100 µM (inactive)
same,GI50,NCI-H23,> 100 µM (inactive)
same,GI50,SNB-75,> 100 µM (inactive)
same,GI50,NCI/ADR-RES,> 100 µM (inactive)
same,GI50,LOX IMVI,> 100 µM (inactive)
same,GI50,SR,> 100 µM (inactive)
same,GI50,SF-295,> 100 µM (inactive)
same,GI50,NCI-H522,> 100 µM (inactive)
same,GI50,CCRF-CEM,> 100 µM (inactive)
same,GI50,SK-MEL-2,> 100 µM (inactive)
same,GI50,HCT-15,> 100 µM
same,GI50,MDA-MB-231,> 100 µM (inactive)
same,GI50,CAKI-1,> 100 µM (inactive)
same,GI50,HT-29,> 100 µM (inactive)
same,GI50,NCI-H226,> 100 µM (inactive)
same,GI50,M14,> 100 µM (inactive)
same,GI50,OVCAR-5,> 100 µM (inactive)
same,GI50,RPMI-8226,> 100 µM (inactive)
same,GI50,UACC-257,> 100 µM (inactive)
same,GI50,EKVX,> 100 µM (inactive)
same,GI50,786-0,> 100 µM (inactive)
same,GI50,TK-10,> 100 µM (inactive)
same,GI50,SF-539,> 100 µM (inactive)
same,GI50,SNB-19,> 100 µM (inactive)
same,GI50,A498,> 100 µM (inactive)
same,GI50,IGROV-1,> 100 µM (inactive)
same,GI50,ACHN,> 100 µM (inactive)
same,GI50,MDA-N,> 100 µM (inactive)
same,GI50,SN12C,> 100 µM (inactive)
same,GI50,BT-549,> 100 µM (inactive)
same,GI50,Hs-578T,> 100 µM (inactive)
same,GI50,HCT-116,> 100 µM (inactive)
same,GI50,OVCAR-4,> 100 µM (inactive)
same,GI50,NCI-H460,> 100 µM (inactive)
same,GI50,HOP-92,> 100 µM (inactive)
same,GI50,A549,> 100 µM (inactive)
same,GI50,MCF7,> 100 µM (inactive)
same,GI50,T47D,> 100 µM (inactive)
same,GI50,DU-145,> 100 µM (inactive)
same,GI50,OVCAR-3,> 100 µM (inactive)
same,GI50,KM12,> 100 µM (inactive)
same,GI50,U-251,> 100 µM (inactive)
same,GI50,OVCAR-8,> 100 µM (inactive)
same,GI50,SK-MEL-5,> 100 µM (inactive)
same,GI50,UACC-62,> 100 µM (inactive)
same,GI50,SF-268,> 100 µM (inactive)
same,GI50,COLO 205,> 100 µM (inactive)
same,GI50,PC-3,> 100 µM (inactive)
same,GI50,MDA-MB-435,> 100 µM (inactive)
same,GI50,MOLT-4,> 100 µM (inactive)
same,GI50,SK-MEL-28,> 100 µM (inactive)
same,GI50,HCC 2998,> 100 µM (inactive)
same,GI50,HOP-62,> 100 µM (inactive)
COC(=O)/C(=C\c1ccco1)P(=O)(OC)OC,GI50,SW-620,89.5 µM (inactive)
same,GI50,SK-OV-3,73.6 µM (inactive)
same,GI50,Malme-3M,16.4 µM (inactive)
same,GI50,RXF 393,24.4 µM (inactive)
same,GI50,NCI-H23,30.5 µM (inactive)
same,GI50,SNB-75,35.2 µM (inactive)
same,GI50,NCI/ADR-RES,24.5 µM (inactive)
same,GI50,LOX IMVI,19.9 µM (inactive)
same,GI50,SR,52.8 µM (inactive)
same,GI50,SF-295,20 µM (inactive)
same,GI50,NCI-H522,2.49 µM (inactive)
same,GI50,CCRF-CEM,30.5 µM (inactive)
same,GI50,SK-MEL-2,30.9 µM (inactive)
same,GI50,HCT-15,75.5 µM
same,GI50,MDA-MB-231,38.8 µM (inactive)
same,GI50,CAKI-1,25.2 µM (inactive)
same,GI50,HT-29,25.9 µM (inactive)
same,GI50,NCI-H226,58.3 µM (inactive)
same,GI50,M14,55.7 µM (inactive)
same,GI50,OVCAR-5,16.2 µM (inactive)
same,GI50,RPMI-8226,67.8 µM (inactive)
same,GI50,UACC-257,65.8 µM (inactive)
same,GI50,EKVX,43.3 µM (inactive)
same,GI50,786-0,47.4 µM (inactive)
same,GI50,TK-10,> 100 µM (inactive)
same,GI50,SF-539,32.5 µM (inactive)
same,GI50,SNB-19,65.2 µM (inactive)
same,GI50,A498,54.3 µM (inactive)
same,GI50,IGROV-1,> 100 µM (inactive)
same,GI50,ACHN,29.4 µM (inactive)
same,GI50,MDA-N,56.1 µM (inactive)
same,GI50,SN12C,39.9 µM (inactive)
same,GI50,BT-549,26.6 µM (inactive)
same,GI50,Hs-578T,54.1 µM (inactive)
same,GI50,HCT-116,44 µM (inactive)
same,GI50,OVCAR-4,17.8 µM (inactive)
same,GI50,NCI-H460,48.3 µM (inactive)
same,GI50,HOP-92,25.2 µM (inactive)
same,GI50,A549,85.1 µM (inactive)
same,GI50,MCF7,17.4 µM (inactive)
same,GI50,T47D,> 100 µM (inactive)
same,GI50,DU-145,80.9 µM (inactive)
same,GI50,OVCAR-3,26.9 µM (inactive)
same,GI50,KM12,> 100 µM (inactive)
same,GI50,U-251,41 µM (inactive)
same,GI50,OVCAR-8,31.5 µM (inactive)
same,GI50,K562,> 100 µM (inactive)
same,GI50,SK-MEL-5,62.4 µM (inactive)
same,GI50,UACC-62,47.6 µM (inactive)
same,GI50,SF-268,97.3 µM (inactive)
same,GI50,COLO 205,> 100 µM (inactive)
same,GI50,PC-3,73.5 µM (inactive)
same,GI50,MDA-MB-435,34.8 µM (inactive)
same,GI50,MOLT-4,> 100 µM (inactive)
same,GI50,SK-MEL-28,52.8 µM (inactive)
same,GI50,HCC 2998,> 100 µM (inactive)
same,GI50,HOP-62,25.4 µM (inactive)
